Source: patent US12440529B2, “Topical Croton lechleri compositions and their use in the treatment of a bacterial colonization or primary or secondary bacterial infection of an underlying skin disorder” (ALPHYN BIOLOGICS, INC., priority 2020, dated 2025)

System: Enterococcus faecalis (ATCC 29212) (EFAECL)
Assay: Agar Well Diffusion Assay (Kirby-Bauer disks), zone of inhibition
Assay type: cell-based
Details: control antibiotic K-B disk
Description: Isolates were subcultured the day before the Agar Well Diffusion Assay was performed. On the day of the assay, a bacterial suspension (0.08-0.12 MacFarland units) of each bacteria isolate was made in Trypticase Soy Broth (TSB), and these suspensions were used to plate a lawn of bacterial organisms on Mueller-Hinton agar or Mueller-Hinton sheep's blood agar. […] The next day, the width of the zone of growth inhibition surrounding each K-B disk was recorded (in mm). The larger the number, the greater the zone of inhibition, and the greater the inhibition of growth of the target organisms.
Therefore, all dilutions were made into DMSO and a K-B disk containing 25 uL DMSO was included in all experiments as a vehicle control.
When assessing antibiotic effects in a K-B type test, the minimum zone of inhibition for considering a positive test varies depending on the antibiotic tested with anything more than 0 mm considered positive in some cases or as much as 10 mm or more needed for others.

Row | Compound | Zone of Inhibition
1 | Gentamicin [GM] | GM 5 MM
2 | CC1(C)S[C@@H]2[C@H](NC(=O)[C@H](N)c3ccccc3)C(=O)N2[C@H]1C(=O)O [AMP, Ampicillin] | AMP 8 MM
